Measured values taken from publication PMC9785678, “Candidalysin Is the Hemolytic Factor of Candida albicans” (Toxins, 2022).

Key:
[1] = system: red blood cells (RBCs); assay: Hemolysis assay with synthetic peptides on purified RBCs; format: cell-based, human; details: 37 °C; for hemolysis by the P7 derivative alone: 2 µM
Protocol: RBCs were purified from whole blood of healthy volunteers. Blood was collected in tubes containing EDTA-K3 as an anticoagulant (approximately 9 mL/tube). To separate RBCs from white blood cells (WBCs) and plasma, three washes were performed by centrifugation (2000× g for 10 min) and subsequent re-suspension to reach 9 mL. First, the RBCs were resuspended in Dulbecco′s Phosphate Buffered Saline (DPBS) + 2% heat inactivated fetal bovine serum, then in pure DPBS, and eventually in RPMI (for assays with live candida) or again DPBS (for assays with peptides). After each centrifugation step, care was taken to remove as many WBCs as possible from the central buffy layer. A hemocytometer (Auto Hematology Analyzer BC-5300 Vet (Mindray, Shenzhen, China)) was used to verify that the WBC count was negligible ([…]) and to determine the RBC concentration. This was then adjusted to 5 × 10^8 cells/mL, in the respective media or buffer.
Peptides were purchased from two different suppliers, namely Proteogenix (Strasbourg, France) and Peptide Protein Research Ltd. (Southampton, UK). Stock solutions were prepared in pure water at a concentration of 1.4 mM, then aliquoted and stored at −20 °C. […] Working solutions were then prepared in the relative buffer at the final concentration indicated for each assay.
To assess the hemolytic potential of C. albicans strains, RBCs and fungal cells were mixed in a 1:1 ratio (5 × 10^7 each, in a final volume of 600 µL) in a 2 mL plastic test tube (screw cap). Every condition was performed in duplicates (technical replicates) and with at least three different donors (biological replicates). Test tubes were then incubated horizontally at 50 rpms, 37 °C, for 24 h. To assess the hemolytic potential of peptides, 10^7 RBCs were incubated with the relevant peptide at the indicated final concentration in a total volume of 150 µL, for 1 h at 37 °C, in a 96-well PCR plate. After incubation, samples were centrifuged (2000× g for 3 min) and 100 µL of supernatant was transferred to a fresh 96-well plate to measure hemoglobin absorbance at 414 nm. Hemolysis was defined as the absorbance of the sample relative to the absorbance of the full lysis control sample (RBCs incubated with pure water), following subtraction of the absorbance of the vehicle control (RBCs incubated with media or buffer only).

[2] = Membrane permeabilization by candidalysin, tethered bilayer lipid membranes (conductance); details: membranes without receptors, candidalysin 5, 10, 20 µM, 37 °C
Protocol: (§1) Figure 5 The purinergic receptor antagonist pyridoxal-phosphate-6-azophenyl-2′,4′-disulfonic acid (PPADS) protects from candidalysin-induced hemolysis via a purinergic receptor-independent mechanism. (a) Purified RBCs were incubated with candidalysin (16 µM) and increasing concentrations of PPADS, for 1 h at 37 °C. Hemolysis was quantified by measuring the absorbance of sample’s supernatant at 414 nm, and plotted relative to the full lysis control sample (RBCs incubated with pure water and the same amount of PPADS), following subtraction of the relative vehicle control (containing the same amount of PPADS). Each data point on the graph represents a different donor (average of 2 technical replicates). […] Permeabilization was measured as kinetic changes in conductance of tethered lipid membranes.
Tethered bilayer lipid membranes with 10% tethering lipids and 90% spacer lipids (T10 slides) were formed using the solvent exchange technique according to the manufacturer’s instructions (SDx Tethered Membranes Pty Ltd., Sydney, Australia). […] After rinsing 3× with 100 µL buffer, the conductance and capacitance of the membranes were measured for 20 min before injection of different concentrations of PPADS to the final concentrations in the individual channels as shown. […] Signals were measured using the tethaPod (SDx Tethered Membranes Pty Ltd., Sydney, Australia).

[3] = system: candidalysin-induced hemolysis of RBCs; assay: Protection of RBCs from candidalysin-induced lysis by purinergic receptor antagonist; format: cell-based, human; details: candidalysin 16 µM, increasing concentrations of PPADS, 1 h, 37 °C
Protocol: as §1, with “PPADS).” for “PPADS). Each data point on the graph represents a different donor (average of 2 technical replicates).”, “membranes. […]” for “membranes.”
To assess the hemolytic potential of C. albicans strains, RBCs and fungal cells were mixed in a 1:1 ratio (5 × 10^7 each, in a final volume of 600 µL) in a 2 mL plastic test tube (screw cap). […] After incubation, samples were centrifuged (2000× g for 3 min) and 100 µL of supernatant was transferred to a fresh 96-well plate to measure hemoglobin absorbance at 414 nm. Hemolysis was defined as the absorbance of the sample relative to the absorbance of the full lysis control sample (RBCs incubated with pure water), following subtraction of the absorbance of the vehicle control (RBCs incubated with media or buffer only).

[4] = system: epithelial cells; details: cited from earlier work
Description: Candidalysin is generated from the longer polyprotein Ece1, which is processed by the Golgi-located Kex2 protease into eight peptides with C-terminal lysine–arginine (KR) residues. It was subsequently shown that a second processing event occurs by another Golgi-located protease, Kex1 [5, 11] which produces mature candidalysin by removing the C-terminal arginine from P3 [5, 11]. Peptides deriving from a Kex2-only processing are secreted, albeit at lower levels than mature candidalysin [5, 11].

CC[C@H](C)[C@H](NC(=O)[C@H](CC(C)C)NC(=O)[C@H](CCC(N)=O)NC(=O)[C@@H]1CCCN1C(=O)[C@H](CC(C)C)NC(=O)[C@H](CCCNC(=N)N)NC(=O)[C@H](CCC(N)=O)NC(=O)[C@H](CC(C)C)NC(=O)[C@H](CC(C)C)NC(=O)[C@H](CCC(=O)O)NC(=O)[C@H](CC(=O)O)NC(=O)[C@H](CC(C)C)NC(=O)[C@H](Cc1ccccc1)NC(=O)[C@H](CC(=O)O)NC(=O)[C@H](CCC(=O)O)NC(=O)[C@H](CC(C)C)NC(=O)CNC(=O)[C@@H](N)CC(=O)O)C(=O)N[C@H](C(=O)N[C@@H](CCCNC(=N)N)C(=O)N[C@@H](CO)C(=O)N[C@@H](C)C(=O)N[C@@H](CCC(=O)O)C(=O)N[C@@H](CO)C(=O)N[C@@H](C)C(=O)N[C@@H](CC(C)C)C(=O)N[C@@H](CCCCN)C(=O)N[C@@H](CC(=O)O)C(=O)N[C@@H](CO)C(=O)N[C@@H](CCC(N)=O)C(=O)N1CCC[C@H]1C(=O)N[C@H](C(=O)N[C@@H](CCCCN)C(=O)O)C(C)C)[C@@H](C)O [P7K]
hemolysis by the P7 derivative alone ([1]; 1 h): no effect

CC[C@H](C)[C@H](NC(=O)[C@H](CC(C)C)NC(=O)[C@H](CCC(N)=O)NC(=O)[C@@H]1CCCN1C(=O)[C@H](CC(C)C)NC(=O)[C@H](CCCNC(=N)N)NC(=O)[C@H](CCC(N)=O)NC(=O)[C@H](CC(C)C)NC(=O)[C@H](CC(C)C)NC(=O)[C@H](CCC(=O)O)NC(=O)[C@H](CC(=O)O)NC(=O)[C@H](CC(C)C)NC(=O)[C@H](Cc1ccccc1)NC(=O)[C@H](CC(=O)O)NC(=O)[C@H](CCC(=O)O)NC(=O)[C@H](CC(C)C)NC(=O)CNC(=O)[C@@H](N)CC(=O)O)C(=O)N[C@H](C(=O)O)[C@@H](C)O [P7a]
hemolysis by the P7 derivative alone ([1]; 1 h): low-level cytolytic activity

Cc1nc(N=Nc2ccc(S(=O)(=O)O)cc2S(=O)(=O)O)c(COP(=O)(O)O)c(C=O)c1O [PPADS, pyridoxal-phosphate-6-azophenyl-2′,4′-disulfonic acid]
effect on permeabilization of artificial membranes by candidalysin [2]: able to inhibit permeabilization | effect on candidalysin-induced hemolysis [3]: reduced

candidalysin
reduction of hemolytic potential in the presence of EDTA ([1]; 100 mM EDTA, peptide 9 µM (Proteogenix), 1 h): 4.2 fold | hemolytic activity compared with P3 ([1]; all tested concentrations (1–8 µM), time course): clearly less hemolytic than P3 | effect of pH on lysis efficiency ([1]; pH 5 to 8, buffered HBSS, peptide 9 µM, 1 h): Only a minimal difference | effect of adding excess Mg2+ ions (MgCl2) to cells pre-treated with EDTA on cytotoxicity ([1]; peptide 9 µM, EDTA then MgCl2 up to 100 mM, 1 h): restored the cytotoxicity | peptide concentration at and above which almost full RBC lysis was observed at the earliest time point ([1]; time course, 5 min incubation, range 1–8 µM, mean of 4 donors): ≥ 4 µM | cytolytic activity against epithelial cells [4]: have cytolytic activity
